PMC4741798, “Imaging of carbonic anhydrase IX with an ^111In-labeled dual-motif inhibitor” (Oncotarget, 2015)
Several values for one entry are separate records, joined by “and”; a condition that tells them apart may be missing. Equal entries are not always repeated.

Test system: SK-RC-52 xenografts
Experiment: Biodistribution in mice bearing SK-RC-52 xenografts
Assay type: in vivo
Conditions: for Tumor/blood ratio / Tumor/kid (kidney) ratio / Tumor/mm (muscle) ratio / Biodistribution: Tumor / Biodistribution: Bladder / Biodistribution: Blood / Biodistribution: Brain / Biodistribution: Fat / Biodistribution: Heart / Biodistribution: Kidney (kid) / Biodistribution: Liver / Biodistribution: Lung / Biodistribution: Muscle (mm) / Biodistribution: Pancreas / Biodistribution: Sm. intestine / Biodistribution: Spleen / Biodistribution: Stomach: n = 5; for Biodistribution: Tumor: SK-RC-52 tumor
Method: Mice bearing SK-RC-52 xenografts within the lower left flank were injected intravenously with 740 kBq (20 μCi) of [^111In]XYIMSR-01 in 200 μL of PBS. For in vivo competition (binding specificity) studies, tumor-bearing mice were injected with 740 kBq (20 μCi) of [^111In]XYIMSR-01 and 200 nmole of 1 in 200 μL of PBS concurrently. At 1 h, 4 h, 8 h, 24 h and 48 h post-injection, mice were sacrificed by cervical dislocation and the blood was immediately collected by cardiac puncture. Heart, lungs, pancreas, spleen, fat, brain, muscle, small intestines, liver, stomach, kidney, urinary bladder, and tumor were collected. Each organ was weighed and the tissue radioactivity was measured with an automated gamma counter (1282 Compugamma CS, Pharmacia/LKBNuclear, Inc., Mt. Waverly, Vic. Australia). The percentage of injected dose per gram of tissue (% ID/g) was calculated by comparison with samples of a standard dilution of the initial dose. All measurements were corrected for radioactive decay.
Data were expressed as mean ± standard deviation (SD). Prism software (GraphPAD, San Diego, California) was used to determine statistical significance. Statistical significance was calculated using a paired t test. P-values < 0.0001 were considered significant.

[1] = 24 h + Block (co-injected 200 nmole of 1)
[2] = 48 h + Block (co-injected 200 nmole of 1)
[3] = plateau followed by one phase decay fit of Table 1 data

SMILES: CC(CCC(=O)N[C@@H](CC(=O)N[C@@H](CC(=O)N[C@@H](CCCCn1cc(CCCC(=O)Nc2nnc(S(N)(=O)=O)s2)nn1)C(=O)NCCOCCOCCNC(=O)CN1CCN(CC(=O)[O-])CCN(CC(=O)[O-])CCN(CC(=O)[O-])CC1)C(=O)O)C(=O)O)(c1ccc(O)cc1)c1ccc(O)cc1.[111In+3] [[^111In]XYIMSR-01]
- Tumor/blood ratio [1]: 45.2 ± 9.7
- Tumor/kid (kidney) ratio [1]: 2.1 ± 0.3
- Tumor/mm (muscle) ratio [1]: 91.4 ± 11.1
- tumor/liver ratio (24 h post-injection): 8.5
- Biodistribution: Tumor (24 h post-injection, i.v.): 25.62 ± 17.67 %ID/g
- Biodistribution: Bladder (24 h post-injection, i.v.): 0.74 ± 0.17 %ID/g
- Biodistribution: Blood (24 h post-injection, i.v.): 0.15 ± 0.02 %ID/g
- Biodistribution: Brain (24 h post-injection, i.v.): 0.71 ± 0.85 %ID/g
- Biodistribution: Fat (24 h post-injection, i.v.): 0.28 ± 0.19 %ID/g
- Biodistribution: Heart (24 h post-injection, i.v.): 1.16 ± 0.20 %ID/g
- Biodistribution: Kidney (kid) (24 h post-injection, i.v.): 15.29 ± 1.69 %ID/g
- Biodistribution: Liver (24 h post-injection, i.v.): 3.02 ± 3.46 %ID/g
- Biodistribution: Lung (24 h post-injection, i.v.): 11.01 ± 3.71 %ID/g
- Biodistribution: Muscle (mm) (24 h post-injection, i.v.): 0.35 ± 0.12 %ID/g
- Biodistribution: Pancreas (24 h post-injection, i.v.): 0.69 ± 0.18 %ID/g
- Biodistribution: Sm. intestine (24 h post-injection, i.v.): 2.11 ± 0.33 %ID/g
- Biodistribution: Spleen (24 h post-injection, i.v.): 0.69 ± 0.39 %ID/g
- Biodistribution: Stomach (24 h post-injection, i.v.): 3.31 ± 1.25 %ID/g
- Tumor/blood ratio (24 h post-injection): 178 and 178.1 ± 145.4
- Tumor/kid (kidney) ratio (24 h post-injection): 1.7 and 1.7 ± 1.2
- Tumor/mm (muscle) ratio (24 h post-injection): 68 and 68.4 ± 29.0
- Biodistribution: Tumor [2]: 1 %ID/g and 1.22 ± 0.54 %ID/g
- Biodistribution: Bladder [2]: 0.14 ± 0.03 %ID/g
- Biodistribution: Blood [2]: 0.03 ± 0.00 %ID/g
- Biodistribution: Fat [2]: 0.03 ± 0.01 %ID/g
- Biodistribution: Heart [2]: 0.04 ± 0.01 %ID/g
- Biodistribution: Kidney (kid) [2]: 0.45 ± 0.09 %ID/g
- Biodistribution: Liver [2]: 0.13 ± 0.04 %ID/g
- Biodistribution: Lung [2]: 0.09 ± 0.02 %ID/g
- Biodistribution: Muscle (mm) [2]: 0.02 ± 0.00 %ID/g
- Biodistribution: Pancreas [2]: 0.03 ± 0.01 %ID/g
- Biodistribution: Sm. intestine [2]: 0.08 ± 0.02 %ID/g
- Biodistribution: Spleen [2]: 0.11 ± 0.03 %ID/g
- Biodistribution: Stomach [2]: 0.14 ± 0.03 %ID/g
- Tumor/blood ratio [2]: 45.4 ± 13.8
- Tumor/kid (kidney) ratio [2]: 2.7 ± 0.8
- Tumor/mm (muscle) ratio [2]: 75.1 ± 17.7
- Biodistribution: Tumor (48 h post-injection, i.v.): 13.92 ± 6.67 %ID/g
- Biodistribution: Bladder (48 h post-injection, i.v.): 0.38 ± 0.18 %ID/g
- Biodistribution: Blood (48 h post-injection, i.v.): 0.06 ± 0.02 %ID/g
- Biodistribution: Brain (48 h post-injection, i.v.): 0.41 ± 0.05 %ID/g
- Biodistribution: Fat (48 h post-injection, i.v.): 0.25 ± 0.08 %ID/g
- Biodistribution: Heart (48 h post-injection, i.v.): 0.84 ± 0.16 %ID/g
- Biodistribution: Kidney (kid) (48 h post-injection, i.v.): 8.78 ± 1.89 %ID/g
- Biodistribution: Liver (48 h post-injection, i.v.): 1.65 ± 0.26 %ID/g
- Biodistribution: Lung (48 h post-injection, i.v.): 9.22 ± 1.25 %ID/g
- Biodistribution: Muscle (mm) (48 h post-injection, i.v.): 0.39 ± 0.28 %ID/g
- Biodistribution: Pancreas (48 h post-injection, i.v.): 0.59 ± 0.18 %ID/g
- Biodistribution: Sm. intestine (48 h post-injection, i.v.): 1.22 ± 0.44 %ID/g
- Biodistribution: Spleen (48 h post-injection, i.v.): 0.67 ± 0.13 %ID/g
- Biodistribution: Stomach (48 h post-injection, i.v.): 1.82 ± 0.43 %ID/g
- Tumor/blood ratio (48 h post-injection): 212.0 ± 41.4
- Tumor/kid (kidney) ratio (48 h post-injection): 1.5 ± 0.5
- Tumor/mm (muscle) ratio (48 h post-injection): 52.0 ± 21.0
- Calculated biological excretion half-life: Bladder [3]: 3.730 hr
- Calculated biological excretion half-life: Blood [3]: 3.246 hr
- Calculated biological excretion half-life: Brain [3]: 3.926 hr
- Calculated biological excretion half-life: Fat [3]: 1.536 hr
- Calculated biological excretion half-life: Heart [3]: 3.538 hr
- Calculated biological excretion half-life: Kidney [3]: 4.344 hr
- Calculated biological excretion half-life: Liver [3]: 4.243 hr
- Calculated biological excretion half-life: Lung [3]: 5.602 hr
- Calculated biological excretion half-life: Muscle [3]: 2.534 hr
- Calculated biological excretion half-life: Pancreas [3]: 3.179 hr
- Calculated biological excretion half-life: SK-RC-52 tumor [3]: 12.27 hr
- Calculated biological excretion half-life: Small intestine [3]: 5.597 hr
- Calculated biological excretion half-life: Stomach [3]: 3.908 hr
